The values below come from US20260315464A1, “COMPOSITIONS, METHODS, AND SYSTEMS FOR MODULATING SPLICING OF MSH3” (REVIR THERAPEUTICS, INC., priority 2023, published 2026).

For experiment [1], the system named is MSH3 poison exon 14A. Kind of experiment: RT-PCR of MSH3 exon 13/PE14A and PE14A/exon 14 amplicons in cynomolgus monkey fibroblasts (FIG. 13). The format is cell-based. The following applies: 24 hours. As for the experimental part:
(§1) To further validate MSH3 poison exon 14A, RT-PCR was used to analyze MSH3 exon 13/poison exon 14A, and poison exon 14A/exon 14 amplicons. Briefly, Cynomolgus monkey primary dermal fibroblasts (Cellosaurus) and HEK293 cells (ATCC) were cultured in DMEM (ThermoFisher Scientific) supplemented with 10% fetal bovine serum (Avantor) and 0.1 μg/mL Primocin (Invivogen). All cell lines were maintained at sub-confluency and grown in a humidified incubator at 37° C. with 5% CO2. RNA was purified using Qiashredder and RNeasy kits (Qiagen), cDNA was prepared with MultiScribe Reverse Transcriptase (ThermoFisher Scientific) and PCR with GoTaq Green Master Mix (Promega). Primers (IDT) used were the following: Fwd-Exon 13 (5′-[…] (SEQ ID NO: 20)), Rev-PE14A (5′-[…] (SEQ ID NO: 21)), Fwd-PE14A (5′-[…] (SEQ ID NO: 22)), Rev-Exon 14 (5′-[…] (SEQ ID NO: 23)), Fwd-GAPDH (5′-[…] (SEQ ID NO: 24)), Rev-GAPDH (5′-ACCCGTTGACTCCGACCT (SEQ ID NO: 25)).

For experiment [2], the system named is MSH3 exon 13/PE14A mRNA (PE5). Kind of experiment: qPCR of MSH3 PE5 (exon 13/PE14A) in HEK293 WT and PE14A CAG clones (FIG. 11B). The format is cell-based, human. As for the experimental part: (§2) In this example, MSH3 poison exon 14A (PE5) and poison exon 21A (PE4) were validated. Briefly, HEK293 parental and clonal cells (Synthego) were cultured in DMEM (ThermoFisher Scientific) supplemented with 10% fetal bovine serum (Avantor) and 0.1 μg/mL Primocin (Invivogen). All cell lines were maintained at sub-confluency and grown in a humidified incubator at 37° C. with 5% CO2. HEK293 clonal cells were generated by Synthego's proprietary CRISPR methods to replace PE14A 5′ splice site with a strong donor (TGAGTTG>CAGGTTA) at the endogenous locus. Two clones (C3 and H2) were isolated to express 99-100% of the desired knock-in mutation. Two clones were generated from the parental line HEK293 without any editing (wild-type WTl3 and WT7) to be used as controls. […] RNA, cDNA and qPCR was prepared using TaqMan Cells-to-CT Express kit (ThermoFisher Scientific). Taqman assays (ThermoFisher Scientific) were used for quantification of total MSH3 exons 13/14 (cat #4351372, ID #: Hs00988993_ml), total MSH3 exons 20/21 (cat #4351372, ID #: Hs00989000_ml), exon 13/PE14A (Fwd: 5′-[…] (SEQ ID NO: 14); Rev: 5′-[…] (SEQ ID NO: 15); Probe: 5′-[…] (SEQ ID NO: 16)) and exon 20/PE21A (Fwd: 5′-[…] (SEQ ID NO: 17); Rev: 5′-[…] (SEQ ID NO: 18); Probe: 5′-[…] (SEQ ID NO: 19)) mRNA expression. […] Protein concentrations were determined by Rapid Gold BCA (ThermoFisher Scientific). […]

Experiment [3] concerns MSH3 exons 13/14 mRNA. As to the kind of experiment: qPCR of total MSH3 exons 13/14 in HEK293 WT and PE14A CAG clones (FIG. 11A). The format is cell-based, human. As for the experimental part:
as §2

The subject of experiment [4] is MSH3 exon 20/PE21A mRNA (PE4). Kind of experiment: qPCR of MSH3 PE4 (exon 20/PE21A) in HEK293 WT and PE14A CAG clones (FIG. 12B). The format is cell-based, human. Conditions: HEK293 wild-type clones, 24 hours. As for the experimental part: as §2
The subject of experiment [5] is MSH3 poison exon 14A. Kind of experiment: RT-PCR of MSH3 exon 13/PE14A and PE14A/exon 14 amplicons in HEK293 cells (FIG. 13). The format is cell-based, human. The following applies: 24 hours. As for the experimental part: as §1
Experiment [6] concerns MSH3 exons 20/21 mRNA. Kind of experiment: qPCR of total MSH3 exons 20/21 in HEK293 WT and PE14A CAG clones (FIG. 12A). The format is cell-based, human. The following applies: HEK293 wild-type clones, 24 hours. As for the experimental part: as §2
The subject of experiment [7] is MSH3 protein. As to the kind of experiment: Western blot of MSH3 protein in HEK293 WT and PE5 CAG clones (FIG. 12C). The format is cell-based, human. As for the experimental part:
as §2

The mark [8] stands for this setting: HEK293 wild-type clones, 24 hours.

With `Cc1nn(C)cc1-c1cc(F)c2c(c1)C(=O)N(c1ccc(N(C)[C@H]3C[C@]4(C)CC[C@](C)(C3)N4)nn1)C2` [Compound A], the 13/PE14A amplicon result in experiment [1] and in experiment [5] was “increase” each time. Moreover, the PE14A/14 amplicon entry in experiment [1] and in experiment [5] was “increase” each time. Moreover, the PE5-specific expression result in experiment [2] (setting [8]) was “increasing PE5-specific expression”. Moreover, the “further increase of PE5” value in experiment [2] (PE5 CAG clones C3 and H2, 24 hours, starting at 0.3-1 μM) is reported as 20-30%. Also, the “MSH3 expression (total, exons 13/14)” value in experiment [3] (setting [8]) is “lowering MSH3 expression”; in experiment [3] (PE5 CAG clones C3 and H2, 24 hours), “No further decrease”. The PE4-specific expression entry in experiment [4] was “increasing PE4-specific expression”. Besides, the “MSH3 expression (total, exons 20/21)” value in experiment [6] was “lowering MSH3 expression”. Moreover, the MSH3 protein levels result in experiment [7] (PE5 CAG clones) and in experiment [7] (wild-type clones) was “decreased in MSH3 levels” each time.
